# Results from patent publication US11225469B2, “Inhibitors of phosphoglycerate dehydrogenase (PHGDH) and uses thereof” (Whitehead Institute for Biomedical Research, priority 2015, dated 2022).
# Biological target: PHGDH (Homo sapiens (Human), UniProt O43175)
# Experiment: PHGDH inhibition, coupled assay with PSAT1/PSPH and diaphorase/resazurin readout
# Type: biochemical
# Settings: Table E9; mixture with PSAT1, PSPH; diaphorase/resazurin reporter
# Protocol: Compounds of the invention were assayed for inhibition of the activity phosphoglycerate dehydrogenase (PHGDH). The compounds were assayed in a mixture comprising PHGDH, PSAT1, PSPH, NADH, and glutamate. Diaphorase and resazurin were used as a fluorescent reporter system.
# In this endogenous pathway coupled assay, the production of NADH by PHGDH was measured through the diaphorasemediated reduction of resazurin (See, e.g., Chakraborty, S., Sakka, M., Kimura, T. & Sakka, K. “Characterization of a dihydrolipoyl dehydrogenase having diaphorase activity of Clostridium kluyveri.” BioscL Biotechnol. Biochem. 72, 982-988 (2008)).
# PHGDH assay buffer contained 50 mM TEA pH 8.0, 10 mM MgCl2, 0.05% BSA, and 0.01% Tween-20. PHGDH enzyme buffer consisted of assay buffer with 20 nM PHGDH and 0.2 mg/mL diaphorase. PHGDH substrate buffer contained 0.3 mM NAD 1.25 mM glutamate, 0.1 mM 3-phosphoglycerate, 0.2 mM resazurin, 1 μM PSAT1, and 1 μM PSPH. qHTS was performed in 1536-well plates dispensed with a BioRAPTR FRD. Each well contained equal volumes of substrate buffer and assay buffer. Plates were read at 0 minutes and 20 minutes at room temperature with a ViewLux uHTS Microplate Imager (PerkinElmer). Follow-up assays were performed in black 384-well plates (Greiner) in 20 μL of enzyme buffer to which compounds were added in dose-response with an HP D300 digital dispenser (Hewlett-Packard), followed by addition of 20 μL of substrate buffer. Plates were incubated at room temperature (25° C.) and read at 0 and 20 minutes with a Spectramax M5 plate reader (Molecular Devices) in fluorescence intensity mode with a λex=550 nm and λem=600 nm (emission cutoff=590 nm).
# Chain of PHGDH (O43175 whole entry): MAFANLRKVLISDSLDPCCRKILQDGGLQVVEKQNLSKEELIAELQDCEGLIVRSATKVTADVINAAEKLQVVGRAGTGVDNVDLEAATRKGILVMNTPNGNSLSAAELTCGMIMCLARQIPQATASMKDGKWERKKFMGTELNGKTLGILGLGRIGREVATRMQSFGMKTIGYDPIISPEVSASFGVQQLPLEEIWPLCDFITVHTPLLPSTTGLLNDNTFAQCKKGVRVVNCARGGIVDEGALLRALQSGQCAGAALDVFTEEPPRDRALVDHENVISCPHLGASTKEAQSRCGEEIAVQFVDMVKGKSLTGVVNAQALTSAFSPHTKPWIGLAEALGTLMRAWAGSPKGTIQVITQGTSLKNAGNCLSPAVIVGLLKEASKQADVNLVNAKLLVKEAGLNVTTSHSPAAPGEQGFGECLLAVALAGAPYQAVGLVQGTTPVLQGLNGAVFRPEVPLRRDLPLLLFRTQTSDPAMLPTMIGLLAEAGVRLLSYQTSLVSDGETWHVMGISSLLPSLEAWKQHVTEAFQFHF
row,SMILES,IC50
1,Cc1cc(C)nc(NC(=S)N2CCN(c3ccc(C(F)(F)F)cc3C(F)(F)F)CC2)c1 [Compound 209],5 to 10 µM
2,Cc1cc(C)nc(NC(=S)N2CCN(c3cccc(C#N)c3)CC2)c1 [Compound 66],10 to 20 µM
3,S=C(Nc1cc(Cl)ccn1)N1CCN(c2cccc(Cl)c2Cl)CC1 [Compound 226],10 to 20 µM
4,Cc1cc(C)nc(NC(=S)N2CCN(c3ccc4c(c3)OCO4)CC2)c1 [Compound 167],≥ 20 µM
5,Cc1cc(C)nc(NC(=S)N2CCN(c3cccc(C(F)(F)F)n3)CC2)c1 [Compound 116],5 to 10 µM
6,CCN1CCN(C(=S)c2ccc(O)cc2)CC1 [Compound 15],≥ 20 µM
7,FC(F)(F)c1cccc(N2CCN(C(=S)Nc3ccccn3)CC2)c1 [Compound 35],5 to 10 µM
8,COc1ccnc(NC(=S)N2CCN(c3ccc(Cl)cc3Cl)CC2)c1 [Compound 181],10 to 20 µM
9,FC(F)(F)c1cnc(N2CCN(C(=S)Nc3cc(Cl)ccn3)CC2)c(Cl)c1 [Compound 202],10 to 20 µM
10,Cc1cc(C)nc(NC(=S)N2CCN(Cc3ccc(C(F)(F)F)cc3)C(C)C2)c1 (stereo not shown) [Compound 275],< 5 µM
11,Cc1cc(C)nc(NC(=S)N2CCN(c3ncnc4sccc34)CC2)c1 [Compound 120],≥ 20 µM
12,Cc1ccnc(NC(=S)NC2CCN(c3cccc(C(F)(F)F)c3)CC2)c1 [Compound 50],10 to 20 µM
13,Cc1cc(C)nc(NC(=S)N2CCN(c3nsc4ccccc34)CC2)c1 [Compound 108],10 to 20 µM
14,Cc1cc(C)nc(NC(=S)N2CCN(C(=O)c3cccc(C(F)(F)F)c3)CC2)c1 [Compound 261],5 to 10 µM
15,O=[N+]([O-])c1cc(C(F)(F)F)ccc1N1CCN(C(=S)Nc2cc(Cl)ccn2)CC1 [Compound 201],10 to 20 µM
16,O=C(Nc1cc2ccccc2cn1)N1CCN(c2cccc(C(F)(F)F)c2)CC1 [Compound 152],≥ 20 µM
17,Cc1ccnc(NC(=S)N2CCN(c3ccc(C(F)(F)F)cc3[N+](=O)[O-])CC2)c1 [Compound 174],5 to 10 µM
18,"Cc1cc(C)nc(NC(=S)N2CCN(Cc3ccccn3)CC2)c1 [Compound 287, N-(4,6-dimethylpyridin-2-yl)-4-(pyridin-2-ylmethyl)piperazine-1-carbothioamide]",≥ 20 µM
19,COc1ccnc(NC(=S)N2CCN(c3ncc(C(F)(F)F)cc3Cl)CC2)c1 [Compound 185],5 to 10 µM
20,Cc1cc(C)nc(NC(=S)N2CCN(c3ccc(C(F)(F)F)cc3Cl)CC2)c1 [Compound 212],5 to 10 µM
21,FC(F)(F)c1cccc(N2CCN(C(=S)Nc3nccc4ccccc34)CC2)c1 [Compound 32],5 to 10 µM
22,COc1ccccc1N[S+](=O)([O-])c1cc(NC(=O)Cc2ccc(Cl)cc2Cl)ccc1N1CCCC1 [Compound 248],≥ 20 µM

row,SMILES,IC50
1,Cc1cc(C)nc(NC(=S)N2CCN(c3nncs3)CC2)c1 [Compound 131],≥ 20 µM
2,COc1ccnc(NC(=S)N2CCN(c3cccc(Cl)c3Cl)CC2)c1 [Compound 180],5 to 10 µM
3,Cc1cc(C)nc(NC(=S)N2CCN(c3ccc(Cl)nn3)CC2)c1 [Compound 165],≥ 20 µM
4,Cc1cc(C)nc(NC(=S)N2CCN(c3ccc(Cl)c(Cl)c3Cl)CC2)c1 [Compound 221],≥ 20 µM
5,Cc1cc(C)nc(NC(=S)N2CCN(c3cccc(OC(F)F)c3)CC2)c1 [Compound 135],< 5 µM
6,COc1cccc(NC(=S)N2CCN(c3ccc(C(F)(F)F)cc3[N+](=O)[O-])CC2)n1 [Compound 192],10 to 20 µM
7,Cc1ccnc(NC(=S)N2CCN(c3ccc(Cl)cc3Cl)CC2)c1 [Compound 172],5 to 10 µM
8,"Cc1cc(C)nc(NC(=S)N2CCCC(NC(=O)c3cccc(C(F)(F)F)c3)C2)c1 (stereo not shown) [Compound 262, N-(1-((4,6-dimethylpyridin-2-yl)carbamothioyl)piperidin-3-yl)-3-(trifluoromethyl)benzamide]",< 5 µM
9,COc1cccc(CN2CCN(C(=S)Nc3cc(C)cc(C)n3)CC2)c1 [Compound 290],10 to 20 µM
10,Cc1ccnc(NC(=S)N2CC[C@@H](Nc3cccc(C(F)(F)F)c3)C2)c1 [Compound 55],≥ 20 µM
11,Cc1cc(C)nc(NC(=S)N2CCN(Cc3ccccc3C)CC2)c1 [Compound 276],≥ 20 µM
12,Cc1ccnc(NC(=S)N2CCN(c3ccc(Br)cc3)CC2)c1 [Compound 9],≥ 20 µM
13,Cc1ccnc(NC(=S)N2CCN(c3cccc(C(F)(F)F)c3)C[C@@H]2C)c1 [Compound 48],10 to 20 µM
14,Nc1nc(NC(=S)N2CCN(c3cccc(C(F)(F)F)c3)CC2)n[nH]1 [Compound 231],≥ 20 µM
15,Cc1cc(C)nc(NC(=S)N2CCN(c3cc(Cl)cc(C(F)(F)F)c3)CC2)c1 [Compound 137],10 to 20 µM
16,Cc1cc(C)nc(NC(=S)N2CCC(Nc3cccc(C(F)(F)F)c3)CC2)c1 [Compound 250],< 5 µM
17,S=C(Nc1cc(Cl)ccn1)N1CCN(c2ccc3ccccc3n2)CC1 [Compound 203],≥ 20 µM
18,Cc1cc(C)nc(NC(=S)N2CCN(c3ccc4cnccc4c3)CC2)c1 [Compound 148],10 to 20 µM
19,Cc1cc(C)nc(NC(=S)N2CCN(c3ccsc3)CC2)c1 [Compound 166],≥ 20 µM
20,Cc1cc(C)nc(NC(=S)N2CCN(Cc3ccc(C(F)(F)F)cc3)C(CO)C2)c1 (stereo not shown) [Compound 294],10 to 20 µM
21,Cc1cc(C)nc(NC(=S)N2CCN(C(=O)c3ccc(C(F)(F)F)cc3)CC2)c1 [Compound 265],< 5 µM
22,COc1ccnc(NC(=S)N2CCN(c3ccccc3C(F)(F)F)CC2)c1 [Compound 183],5 to 10 µM

row,SMILES,IC50
1,FC(F)(F)c1cccc(N2CCN(C(=S)Nc3cc(C(F)(F)F)ccn3)CC2)c1 [Compound 26],5 to 10 µM
2,Cc1cc(C)nc(NC(=S)N2CCN(c3cc(Cl)c(Cl)c(Cl)c3)CC2)c1 [Compound 206],≥ 20 µM
3,Cc1ccnc(NC(=S)N2CCN(c3ccc(F)cc3)CC2)c1 [Compound 7],≥ 20 µM
4,Cc1cccc(NC(=S)N2CCN(c3cccc(C(F)(F)F)c3)CC2)c1 [Compound 23],≥ 20 µM
5,Cc1ccnc(NC(=O)N2CCN(c3cccc(C(F)(F)F)c3)CC2)c1 [Compound 3],≥ 20 µM
6,COc1ccc(NC(=S)N2CCN(c3cccc(C(F)(F)F)c3)CC2)nc1 [Compound 37],≥ 20 µM
7,CC(=O)c1ccc(N2CCN(C(=S)Nc3cc(C)ccn3)CC2)cc1 [Compound 14],≥ 20 µM
8,Cc1ccnc(NC(=S)N2CCc3cccc(C(F)(F)F)c3C2)c1 [Compound 59],10 to 20 µM
9,Cc1ccnc(NC(=S)N2CCN(c3cccc([N+](=O)[O-])c3)CC2)c1 [Compound 5],≥ 20 µM
10,Cc1cc(C)nc(NC(=S)N2CCN(c3ccc(F)c(F)c3F)CC2)c1 [Compound 208],10 to 20 µM
11,Cc1cccc2nc(NC(=S)N3CCN(c4cccc(C(F)(F)F)c4)CC3)[nH]c12 [Compound 247],< 5 µM
12,Cc1cc(C)nc(NC(=S)N2CCN(c3cncc4ccccc34)CC2)c1 [Compound 146],10 to 20 µM
13,FC(F)(F)c1cccc(N2CCN(C(=S)Nc3cc[nH]n3)CC2)c1 [Compound 237],≥ 20 µM
14,Cc1cc(C)nc(NC(=S)N2CCN(c3ccc(C(=O)O)cc3)CC2)c1 [Compound 101],≥ 20 µM
15,Cc1cc(C)nc(Nc2nnc(N3CCN(c4cccc(C(F)(F)F)c4)CC3)s2)c1 [Compound 125],≥ 20 µM
16,Cc1cc(C)nc(NC(=S)N2CCN(Cc3ccccc3Cl)CC2)c1 [Compound 289],10 to 20 µM
17,Cc1ccnc(NC(=S)NCCN(C)c2cccc(C(F)(F)F)c2)c1 [Compound 21],≥ 20 µM
18,FC(F)(F)c1cccc(N2CCN(C(=S)Nc3nc4ccc(C(F)(F)F)cc4[nH]3)CC2)c1 [Compound 246],5 to 10 µM
19,FC(F)(F)c1cccc(N2CCN(C(=S)Nc3ccncc3)CC2)c1 [Compound 31],10 to 20 µM
20,Cc1cc(C)nc(NC(=S)N2CCN(c3ccc(F)cc3F)CC2)c1 [Compound 90],5 to 10 µM
21,COc1ccc(N2CCN(C(=S)Nc3cc(C)ccn3)CC2)cc1 [Compound 12],≥ 20 µM
22,Cc1cc(C)nc(NC(=S)N2CCN(CC3CC3)CC2)c1 [Compound 301],≥ 20 µM

row,SMILES,IC50
1,Cc1cc(C)nc(N/C(=N/C#N)N2CCN(c3cccc(C(F)(F)F)c3)CC2)c1 [Compound 95],≥ 20 µM
2,Cc1cc(C)nc(NC(=S)N2CCN(c3cccc([S+](C)[O-])c3)CC2)c1 (stereo not shown) [Compound 139],≥ 20 µM
3,CN(C)c1ccc2nc(NC(=S)N3CCN(c4cccc(C(F)(F)F)c4)CC3)sc2c1 [Compound 144],≥ 20 µM
4,Cc1cc(C)nc(NC(=S)N2CCN(c3ncc(C(F)(F)F)cc3Cl)CC2)c1 [Compound 111],5 to 10 µM
5,Cc1cc(C)nc(NC(=S)N2CCN(c3ccc(N4CCCC4)nn3)CC2)c1 [Compound 84],≥ 20 µM
6,FC(F)(F)c1cccc(N2CCN(C(=S)Nc3nc(-c4ccccc4)c[nH]3)CC2)c1 [Compound 230],< 5 µM
7,Cc1ccnc(NC(=S)N2CCN(c3ncc(C(F)(F)F)cc3Cl)CC2)c1 [Compound 176],5 to 10 µM
8,Cc1ccc(CN2CCN(C(=S)Nc3cc(C)cc(C)n3)CC2)cc1 [Compound 292],< 5 µM
9,FC(F)(F)c1cccc(N2CCN(C(=S)Nc3nccc4cccnc34)CC2)c1 [Compound 204],10 to 20 µM
10,Cc1ccnc(NC(=S)N2CC3CN(c4ccc(Cl)cc4C(F)(F)F)CC3C2)c1 (stereo not shown) [Compound 224],≥ 20 µM
11,Cc1ccnc(NC(=S)Nc2cccc(C(F)(F)F)c2)c1 [Compound 46],10 to 20 µM
12,COc1cccc(NC(=S)N2CCN(c3ccc(Cl)cc3Cl)CC2)n1 [Compound 190],< 5 µM
13,OCc1ccnc(NC(=S)N2CCN(c3cccc(C(F)(F)F)c3)CC2)c1 [Compound 27],≥ 20 µM
14,FC(F)(F)c1cccc(N2CCN(C(=S)Nc3cccnc3)CC2)c1 [Compound 30],< 5 µM
15,FC(F)(F)c1cccc(N2CCN(C(=S)Nc3ncnc4ccccc34)CC2)c1 [Compound 143],5 to 10 µM
16,Cc1cc(C)nc(NC(=S)N2CCN(c3ncccc3C(F)(F)F)CC2)c1 [Compound 113],10 to 20 µM
17,Cc1cc(C)nc(NC(=S)N2CCN(Cc3ccccc3F)CC2)c1 [Compound 288],10 to 20 µM
18,Cc1cc(C)nc(NC(=S)N2CCN(c3nc4ccccc4o3)CC2)c1 [Compound 105],10 to 20 µM
19,Cc1cc(C)nc(NC(=S)N2CC3CN(c4ncc(C(F)(F)F)cc4Cl)CC3C2)c1 (stereo not shown) [Compound 225],10 to 20 µM
